melting point [°C] | Compound
110 to 112 | Nc1ccc(CCCc2ccc(Nc3ccccc3C(=O)O)cc2)cc1
110 to 120 | COc1ccc2c(c1)CCC1=C2CCC2(C)C(=O)CCC12 (stereo unspecified)
208 to 209 | CC1(C(=O)c2c[nH]c3ncc(-c4cccc(N5CCOCC5)c4)nc23)CCCCC1
177 to 178 | CC(C)(C)OCC1CN(c2ccc3cc(O)ccc3c2)C(=O)O1 (stereo unspecified)
134 to 135 | O=C(O)C(OCOc1ccc(-c2ccc(Cl)cc2)cc1)(C(F)(F)F)C(F)(F)F
56 to 57 | CCN(CC)CCNC(=O)c1cc(N)cc(C)c1OC
96 to 98 | COc1ccc2cc(OCc3ccccc3)c(C(=O)OCc3ccccc3)cc2c1
> 290 | COc1c(N2CC(N)C2)c(F)cc2c(=O)c(C(=O)O)cn(-c3cc(N)c(F)cc3F)c12
109 to 110 | Fc1ccc(CN2CCN(C3CC=C(c4ccc(F)cc4)CC3)CC2)cc1 (stereo unspecified)
156 to 158 | Cc1c(C)c(N2CCN(c3ccc(CN)cc3)CC2)c(C)c2c1OC(C)(C)C2
157 to 160 | CCCOc1ccc(S(=O)(=O)NCc2ccncc2)cc1-c1nc2cc(N)c(N)cc2c(=O)[nH]1
113 to 115 | CC1SCN(CCCCN2CCN(c3nsc4ccccc34)CC2)C1=O (stereo unspecified)
207 | O=C(NC(=O)N1CCC(COc2ccccc2)CC1)c1ccc(O)cc1
121 to 122 | O=C1CCN(Cc2ncccc2O)CC1C(c1ccccc1)c1ccccc1 (stereo unspecified)
122 | CCCCNc1cncc(C(=NCCc2ccccc2Cl)NC#N)c1
86 to 87 | Nc1cc(C(F)(F)C(F)(F)F)no1
139 to 142 | Cc1noc(NS(=O)(=O)c2ccc(S(=O)(=O)c3ccccc3)s2)c1Br
> 250 | COc1cc2ncc(C#N)c(Nc3ccc(O)cc3Cl)c2cc1OC
276 to 278 | c1ccc(-c2cc3cnccc3[nH]2)cc1
68 to 70 | CN(C)C(C)(CO)c1cccs1 (stereo unspecified)
> 400 | NS(=O)(=O)c1cc2nc(O)c(O)nc2c2scnc12
69 to 71 | CCCN(C)C(C)CN1CCc2c(c(=O)oc3cc(OC)ccc23)C1 (stereo unspecified)
62.3 to 64.7 | Nc1c(Cl)cc(C(O)CNCCCCCCOCCCCCCc2ccc3ccccc3n2)cc1Cl (stereo unspecified)
128 to 131 | CCOC(=O)c1cn(-c2ccc(F)c(NC(=O)OC(C)(C)C)c2F)c2nc(Cl)c(F)cc2c1=O
70 to 76 | COc1cc(Oc2cccc(SC(F)(F)F)c2)nc(C(=O)NC(C)C)c1

melting point [°C] | Compound
133 to 136 | Nc1c(F)c(F)cc(C(=O)O)c1F
117 to 119 | COc1ccc(-c2nnc3c4ccccc4c(CNCCCC#N)nn23)cc1
264 | O=C(O)c1cnn2c(C(F)(F)F)cc(-c3ccc(C(F)(F)F)c(OCC(F)(F)F)c3)nc12
194 | O=C(CCCN1CCN(c2ccc(F)cc2)CC1)NC1c2ccccc2CSc2ccccc21 (stereo unspecified)
119 to 121 | Cc1c(NC(=O)CC(C)(C)C)cc2c(c1C)OC(C)(C)C2(O)c1ccc(C(C)C)cc1 (stereo unspecified)
85 to 86 | Cc1ccc(N(Cc2ccccc2)c2ccccc2)cc1
168 to 170 | Cc1cc(CN2CCNC2=C[N+](=O)[O-])on1
114 to 116 | CCNC(=O)c1ccsc1[Si](C)(C)C
194 to 195 | CC(C)c1cccc(CCCn2ccnc2)c1NC(=O)CC1c2ccccc2Oc2ccccc21
65 to 68 | c1ccc2c(c1)ccn2Cc1ccncc1
179 to 181 | Cn1cnc(COc2nc3c(cc2-c2cccs2)nnn3-c2ccccc2F)n1
145 | CC(=CC(=O)Nc1ccccc1)Oc1ccccc1
256 to 258 | CC(=O)N(c1nc2cc3nc(N(C(C)=O)N4CCN(C)CC4)sc3cc2s1)N1CCN(C)CC1
286 to 289 | Nc1ccc(CN2C(=O)[C@H]3CCC[C@H]3N(C(=O)CN3C(=O)c4ccccc4C3=O)c3ccccc32)cc1 (relative stereo)
120 to 122 | COCOC1=C(C(N)=O)CC(C#N)(c2ccc(OC)c(OCC3CC3)c2)CC1 (stereo unspecified)
161 to 162 | CCOC(=O)C(=O)Nc1ccc(S(=O)(=O)NC(=O)C(=O)OCC)c(C(F)(F)F)c1
200 | O=C1Nc2ccccc2SC1c1ccccc1Cl (stereo unspecified)
51 to 53 | CC(Cn1cncn1)(O[Si](C)(C)C)c1ccc(F)cc1F (stereo unspecified)
164 to 165 | COCc1cc(O)c2nc(C)c(C)n2c1
79 to 81 | CC1(C)OC(c2ccc(S(N)(=O)=O)cc2F)=C(c2ccccc2)C1=O
238 to 239 | COc1ccc(N2CCN(CCn3c(=O)[nH]c4cscc4c3=O)CC2)cc1
126 to 128 | CC1(C)Oc2ccc(OCc3ccccc3)cc2C(O)C1Br (stereo unspecified)
240 | NC(=O)c1nccn1C1Cc2cc(Cl)ccc2C1=O (stereo unspecified)
244 | CCCCCCCCCCCCCCCCCC(=O)NN(C(=O)CCCCCCCCCCCCCCCCC)C(=O)CCCCC(=O)NN
95 to 96.5 | CCOC(=O)c1cc(OC)c(OC)c(OC)c1-c1c(C(=O)OCC)cc(OC)c2c1OCO2

melting point [°C] | Compound
120 to 123 | CCc1nc2c(cnn2CC)c(NC2CCOCC2)c1CN(Cc1ccc(OC)c(-c2cccc(CN3CCN(C)CC3)c2)c1)C(=O)c1cccc(C(N)=O)c1
229 | Cn1ncc(C(=O)N2CCOCC2)c1C(=O)Nc1ccc2nc(-c3cccnc3)nn2c1
63 to 65 | CCCCCCCCCCC1SCCCN1C(=S)Nc1cccc(Cl)c1 (stereo unspecified)
239 to 240 | CCCCn1c(=O)[nH]c(=O)c2c3n(nc21)CCN3
210 | CN(C)S(=O)(=O)c1cccc(NC(=O)c2cnn3c(C(F)(F)F)cc(-c4ccc(C(F)(F)F)cc4)nc23)c1
179 to 181 | COc1ccc(S(=O)(=O)N(Cc2ccccc2)C2(C(=O)NO)CCSCC2)cc1
190 | CC(C)(C)NC(=O)c1cc(Br)c(Br)s1
119 to 120 | O=C1CC(CCO)c2ccccc2N1 (stereo unspecified)
162 to 165 | O=Cc1csc(NCc2ccccc2)n1
244 to 246 | Oc1nc(-c2ncccn2)nc(O)c1-c1cccs1
231 to 232 | O=C(c1ccccc1)N1CCC2(CCc3c2[nH]c2ccccc32)CC1
73 to 74 | CCCCNC(=O)C(O[Si](C)(C)C(C)(C)C)C(c1ccccc1)c1ccccc1 (stereo unspecified)
72 to 74 | CCCc1c(OCCCSCCO)ccc(C(C)=O)c1O
243 to 247 | O=c1cc(N2CCOCC2)oc2c(-c3ccc(O)c(-c4ccccc4)c3)cccc12
147 to 149 | O=C(Nc1cc([N+](=O)[O-])cc([N+](=O)[O-])c1)C1CC1
108 | NCC1COc2cc(Cl)cc(-c3ccccc3Cl)c2N1 (stereo unspecified)
228 | O=C(N[C@H]1CC[C@H](CCN2CCC(c3cccc4c3CCO4)CC2)CC1)c1ccc(-n2cccc2)cc1
266 | O=C(Nc1ccc(C(=O)O)c(O)c1)c1ccc(-c2ccccc2)cc1
67 to 69 | CCN(Cc1csc(C2CCCC2)n1)C(=O)N[C@H](C(=O)N[C@@H](Cc1ccccc1)C[C@H](O)[C@H](Cc1ccccc1)NC(=O)OCc1cncs1)C(C)C
122 to 126 | CCCCc1nc2cnc3ccccc3c2n1CCCCSc1ccc(F)cc1F
63 to 65 | O=C(c1ccc(Cl)cc1)c1ccc(CSC(F)(F)F)cc1
148 to 149 | CC(=O)C(O)C1OC(n2cc(F)c(=O)[nH]c2=O)CC1(O)C(C)=O (stereo unspecified)
195 | Cn1nc(-c2ccc([N+](=O)[O-])o2)c2c(Cl)ncnc21
173 to 175 | Cc1oc(-c2ccccc2)nc1CCOc1ccc(CC(C(=O)O)C(=O)O)cc1
154 to 155 | O=C(O)CCC1CC(c2ccccc2)CCC1O (stereo unspecified)

melting point [°C] | Compound
78 to 80 | CCC(CO)(CO)CBr
66 to 69 | COc1ccc(-c2ccccc2C)cc1C=O
78 to 80 | CC1CN(c2cccc(F)c2)N=C1N (stereo unspecified)
135 to 137 | NNC(=O)c1ccccc1-c1ccc(N)cc1
176 | O=C(Nc1ccccc1)N1Cc2cccn2-c2ccsc2C1=O
420 | NS(=O)(=O)c1cccc2c1ccc1nc(O)c(O)nc12
> 370 | Nc1ncnc2[nH]c(=S)sc12
197 to 200 | COC(=O)c1ccc(C)c(-n2c(C)cc(OCc3ccc(F)cc3CNC(=O)Nc3cc(C(C)(C)C)nn3-c3ccc(O)c(Cl)c3)c(Cl)c2=O)c1
71 to 75 | C=CCn1c(-c2cccnc2)nn(CCCCN2CCN(c3ccccc3OC)CC2)c1=O
149 to 150 | COc1cc2c(cc1O)CCN(CC(=O)c1ccc(OC)c(OC)c1)C2
67 to 69 | CC(Oc1cc(O)ccn1)C(F)(F)F (stereo unspecified)
159 to 160 | Oc1ccc(-c2nn(C3CCCC3)c3c(C(F)(F)F)cccc23)c(O)c1
123 to 125 | CCC(=O)NCC(CCO)c1cccc2ccc(OC)cc12 (stereo unspecified)
82 to 83 | CCOC(=O)c1ccc(N)c(Cl)c1
143 to 144 | O=C1c2ccccc2C(=O)N1OCCCN1CCN(c2nsc3ccccc23)CC1
127 to 128 | COC(=O)c1nc(Cl)cc(Cl)c1N
156 to 159 | Cc1n[nH]c2cc(-c3nn(C(C)c4oc5cccc(F)c5c(=O)c4-c4cccc(F)c4)c4ncnc(N)c34)ccc12 (stereo unspecified)
254 to 255 | O=C(NCc1ccc(Cl)cc1)c1cnc2c(F)cc(Br)cc2c1
60 to 62 | O=C(O)CCC(=O)OCCc1ccccc1
102 to 103 | CCCCCCCCC(=N)NC(=S)Nc1ccc(Cl)cc1
93 to 96 | CCCNC(=O)c1cccc(C2(c3ccc(OC(F)F)cc3)N=C(N)N(C)C2=O)c1 (stereo unspecified)
142 to 143 | O=S1(=O)NCN(C2CC2)c2c(Cl)cccc21

Compound | melting point [°C]
CC(=O)OCC(=O)Nc1nc(CN2CCC(c3c[nH]c4ccccc34)CC2)cs1 | 140 to 144
C=C1CC2(CC)C(=O)CC(O)C2C2CCC3=CC(=O)CCC3C12 (stereo unspecified) | 228
CC(C)(C)c1nc(-c2nn(-c3ccc(F)cc3F)c3c2C2CCC3C2)no1 (stereo unspecified) | 119 to 121
COc1ccc(Br)cc1O | 62 to 64

Reference: a melting point compilation (Tetko et al.; mined from patent text by program, amines drawn as free bases though some values may be those of a salt)
